# Tests used:
# [1] = molecular target: T1, Protein mono-ADP-ribosyltransferase PARP15 (Homo sapiens, UniProt Q460N3); experiment: Inhibition of N-terminal his-tagged human PARP15 expressed in Escherichia coli Rosette2 (DE3)
# T1 sequence (Q460N3 whole entry): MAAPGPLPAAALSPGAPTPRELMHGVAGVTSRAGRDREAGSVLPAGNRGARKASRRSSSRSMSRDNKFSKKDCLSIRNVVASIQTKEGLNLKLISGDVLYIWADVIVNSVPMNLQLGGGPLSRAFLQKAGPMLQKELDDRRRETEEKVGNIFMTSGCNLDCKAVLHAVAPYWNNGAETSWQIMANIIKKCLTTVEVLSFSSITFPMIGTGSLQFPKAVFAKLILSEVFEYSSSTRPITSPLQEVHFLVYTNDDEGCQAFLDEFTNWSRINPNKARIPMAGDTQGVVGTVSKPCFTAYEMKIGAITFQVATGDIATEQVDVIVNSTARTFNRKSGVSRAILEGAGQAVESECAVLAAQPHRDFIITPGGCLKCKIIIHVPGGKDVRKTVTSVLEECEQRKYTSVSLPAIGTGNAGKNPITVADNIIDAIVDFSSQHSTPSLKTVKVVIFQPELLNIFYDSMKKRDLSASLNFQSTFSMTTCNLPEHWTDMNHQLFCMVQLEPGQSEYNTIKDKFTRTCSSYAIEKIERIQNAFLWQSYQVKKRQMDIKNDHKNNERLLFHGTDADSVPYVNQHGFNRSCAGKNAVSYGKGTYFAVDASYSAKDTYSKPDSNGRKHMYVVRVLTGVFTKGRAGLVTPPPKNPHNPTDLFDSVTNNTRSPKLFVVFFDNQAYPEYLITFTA
# [2] = molecular target: Protein mono-ADP-ribosyltransferase PARP14 (Homo sapiens, UniProt Q460N5); experiment: Inhibition of N-terminal his-tagged human PARP14 expressed in Escherichia coli Rosette2 (DE3)
# [3] = molecular target: T2, Poly [ADP-ribose] polymerase tankyrase-2 (Homo sapiens, UniProt Q9H2K2); experiment: Inhibition of N-terminal his-tagged human TNKS2 expressed in Escherichia coli Rosette2 (DE3)
# T2 sequence (Q9H2K2 whole entry): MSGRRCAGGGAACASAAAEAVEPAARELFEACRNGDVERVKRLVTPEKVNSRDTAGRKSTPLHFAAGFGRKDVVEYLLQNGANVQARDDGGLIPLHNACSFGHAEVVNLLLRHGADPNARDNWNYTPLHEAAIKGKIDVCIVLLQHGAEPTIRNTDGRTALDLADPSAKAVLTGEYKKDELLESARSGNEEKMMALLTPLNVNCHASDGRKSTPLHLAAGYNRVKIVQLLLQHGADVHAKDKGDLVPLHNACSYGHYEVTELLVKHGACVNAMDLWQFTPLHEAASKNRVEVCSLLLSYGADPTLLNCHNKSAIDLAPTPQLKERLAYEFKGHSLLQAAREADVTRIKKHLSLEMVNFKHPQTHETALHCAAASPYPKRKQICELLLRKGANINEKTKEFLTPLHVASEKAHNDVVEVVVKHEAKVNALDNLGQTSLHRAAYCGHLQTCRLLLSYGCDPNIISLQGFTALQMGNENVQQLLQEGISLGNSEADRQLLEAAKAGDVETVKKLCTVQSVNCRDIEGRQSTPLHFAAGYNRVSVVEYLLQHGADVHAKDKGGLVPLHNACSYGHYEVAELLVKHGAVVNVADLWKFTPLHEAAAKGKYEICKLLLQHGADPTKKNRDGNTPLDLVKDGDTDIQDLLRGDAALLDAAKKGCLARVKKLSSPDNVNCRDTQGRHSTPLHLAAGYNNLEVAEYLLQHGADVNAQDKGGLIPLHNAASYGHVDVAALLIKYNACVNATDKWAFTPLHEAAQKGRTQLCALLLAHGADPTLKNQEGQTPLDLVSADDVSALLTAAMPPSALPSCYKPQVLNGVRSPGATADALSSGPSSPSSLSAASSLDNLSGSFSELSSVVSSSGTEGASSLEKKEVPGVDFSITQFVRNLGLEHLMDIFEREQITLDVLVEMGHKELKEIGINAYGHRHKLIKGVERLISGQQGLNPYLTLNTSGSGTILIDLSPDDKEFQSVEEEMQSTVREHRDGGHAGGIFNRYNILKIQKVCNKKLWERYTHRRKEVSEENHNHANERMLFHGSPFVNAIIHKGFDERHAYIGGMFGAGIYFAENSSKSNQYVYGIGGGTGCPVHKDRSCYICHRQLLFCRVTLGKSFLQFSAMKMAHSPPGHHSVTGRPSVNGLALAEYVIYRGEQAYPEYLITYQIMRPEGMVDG
# [4] = molecular target: Poly [ADP-ribose] polymerase 2 (Homo sapiens, UniProt Q9UGN5); experiment: Inhibition of N-terminal his-tagged human PARP2 expressed in Escherichia coli Rosette2 (DE3)
# HeLa = experiment: Cytoprotective activity against human HeLa cells assessed as rescue of PARP10-induced cell death by measuring number of colonies treated for 8 to 10 days followed by compound replenishment for every 3 days by methylene blue staining based assay; assay type: functional
# Sequence of Poly [ADP-ribose] polymerase 2 (Q9UGN5 whole entry): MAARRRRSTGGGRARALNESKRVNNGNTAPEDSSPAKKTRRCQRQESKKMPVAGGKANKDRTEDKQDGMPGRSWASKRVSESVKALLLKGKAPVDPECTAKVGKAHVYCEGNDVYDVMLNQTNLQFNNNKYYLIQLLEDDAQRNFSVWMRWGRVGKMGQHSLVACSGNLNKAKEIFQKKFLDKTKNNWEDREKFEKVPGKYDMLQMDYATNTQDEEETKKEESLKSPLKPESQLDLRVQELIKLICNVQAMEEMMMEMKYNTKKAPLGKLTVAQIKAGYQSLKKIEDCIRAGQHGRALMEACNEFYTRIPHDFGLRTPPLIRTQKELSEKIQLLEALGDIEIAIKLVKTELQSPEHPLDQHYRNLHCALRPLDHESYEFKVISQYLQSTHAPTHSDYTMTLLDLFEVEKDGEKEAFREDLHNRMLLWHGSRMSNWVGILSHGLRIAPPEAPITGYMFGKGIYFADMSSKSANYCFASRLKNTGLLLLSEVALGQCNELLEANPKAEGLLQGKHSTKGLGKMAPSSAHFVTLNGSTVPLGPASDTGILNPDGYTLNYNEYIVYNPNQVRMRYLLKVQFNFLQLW
# Sequence of Protein mono-ADP-ribosyltransferase PARP14 (Q460N5 whole entry): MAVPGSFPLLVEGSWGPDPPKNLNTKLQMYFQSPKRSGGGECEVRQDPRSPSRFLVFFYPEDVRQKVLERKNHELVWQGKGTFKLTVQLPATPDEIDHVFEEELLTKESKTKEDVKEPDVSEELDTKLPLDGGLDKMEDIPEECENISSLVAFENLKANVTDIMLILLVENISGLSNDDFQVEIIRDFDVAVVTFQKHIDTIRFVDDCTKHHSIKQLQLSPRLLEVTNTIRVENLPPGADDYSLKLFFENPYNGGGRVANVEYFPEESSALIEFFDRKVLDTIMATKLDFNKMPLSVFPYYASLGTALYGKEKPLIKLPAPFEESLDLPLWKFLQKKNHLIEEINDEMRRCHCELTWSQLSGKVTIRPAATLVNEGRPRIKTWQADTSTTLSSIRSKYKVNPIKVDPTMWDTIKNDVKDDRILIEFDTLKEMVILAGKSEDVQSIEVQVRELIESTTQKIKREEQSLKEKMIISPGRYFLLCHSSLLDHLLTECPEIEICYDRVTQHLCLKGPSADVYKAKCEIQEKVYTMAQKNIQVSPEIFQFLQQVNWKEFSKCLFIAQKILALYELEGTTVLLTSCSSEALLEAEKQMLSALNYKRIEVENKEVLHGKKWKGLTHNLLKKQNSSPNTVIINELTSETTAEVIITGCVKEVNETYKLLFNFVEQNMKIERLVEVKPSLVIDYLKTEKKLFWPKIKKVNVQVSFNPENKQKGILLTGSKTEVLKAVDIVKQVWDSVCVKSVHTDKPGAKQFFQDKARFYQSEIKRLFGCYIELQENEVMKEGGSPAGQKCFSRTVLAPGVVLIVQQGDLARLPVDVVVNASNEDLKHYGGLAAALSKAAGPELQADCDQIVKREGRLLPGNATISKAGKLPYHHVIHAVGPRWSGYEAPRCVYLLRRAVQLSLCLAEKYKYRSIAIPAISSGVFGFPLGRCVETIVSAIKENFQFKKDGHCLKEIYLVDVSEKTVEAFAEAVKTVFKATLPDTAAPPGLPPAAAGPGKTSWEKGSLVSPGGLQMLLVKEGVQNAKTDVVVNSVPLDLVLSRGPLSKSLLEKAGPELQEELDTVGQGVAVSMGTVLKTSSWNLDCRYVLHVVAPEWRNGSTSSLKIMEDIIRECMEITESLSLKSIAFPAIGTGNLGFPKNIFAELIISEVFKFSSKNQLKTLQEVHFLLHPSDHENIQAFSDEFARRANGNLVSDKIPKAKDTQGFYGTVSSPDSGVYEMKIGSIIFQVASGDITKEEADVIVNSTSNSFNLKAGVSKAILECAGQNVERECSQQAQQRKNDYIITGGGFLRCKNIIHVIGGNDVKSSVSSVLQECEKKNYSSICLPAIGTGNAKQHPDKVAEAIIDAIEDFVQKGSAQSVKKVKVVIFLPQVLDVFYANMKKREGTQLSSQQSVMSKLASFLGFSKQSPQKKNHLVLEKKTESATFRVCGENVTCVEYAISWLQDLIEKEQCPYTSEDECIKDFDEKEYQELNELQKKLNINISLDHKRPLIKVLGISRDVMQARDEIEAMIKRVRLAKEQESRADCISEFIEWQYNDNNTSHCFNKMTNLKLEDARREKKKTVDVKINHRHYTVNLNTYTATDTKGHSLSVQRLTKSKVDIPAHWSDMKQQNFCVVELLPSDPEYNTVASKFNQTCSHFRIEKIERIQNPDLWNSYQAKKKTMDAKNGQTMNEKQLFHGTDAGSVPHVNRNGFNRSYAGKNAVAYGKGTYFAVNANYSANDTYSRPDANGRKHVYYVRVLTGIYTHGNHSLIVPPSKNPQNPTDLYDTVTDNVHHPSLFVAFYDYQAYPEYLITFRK
SMILES,IC50 [1] [µM],IC50 [2] [µM],IC50 [3] [µM],IC50 [4] [µM],IC50 (HeLa) [µM]
NC(=O)c1ccc(Oc2cccc(C(N)=O)c2)cc1,1.7,41,6.5,1.7,1.8
N#Cc1ccc(Oc2ccc(C(N)=O)cc2)cc1,11,> 100,> 100,27,1.7

# Source: ChEMBL document CHEMBL5120882, “Medicinal Chemistry Perspective on Targeting Mono-ADP-Ribosylating PARPs with Small Molecules” (J Med Chem, 2022)
